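Growth conditions: 96-well plates. Treatment: test compound, 48 hours, 5 concentrations. Analysis: linear interpolation between bracketing concentrations; unreached endpoints set to highest concentration. Abbreviation: GI50, concentration required for 50% inhibition of growth. TGI: total growth inhibition.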
How the values were obtained:
Test in all cases: NCI tumour cell line growth inhibition, 48 h
A549 NSCLC = tested on: A549 NSCLC
COLO 205 colon = tested on: COLO 205 colon
HL-60(TB) leukemia = tested on: HL-60(TB) leukemia
HOP-92 NSCLC = tested on: HOP-92 NSCLC
K-562 leukemia = tested on: K-562 leukemia
NCI-H23 lung = tested on: NCI-H23 lung
OVCAR-8 ovarian = tested on: OVCAR-8 ovarian
PC-3 prostate = tested on: PC-3 prostate
UACC-257 melanoma = tested on: UACC-257 melanoma

| SMILES | GI50 (A549 NSCLC) [µM] | TGI (A549 NSCLC) [µM] | GI50 (COLO 205 colon) [µM] | TGI (COLO 205 colon) [µM] | GI50 (HL-60(TB) leukemia) [µM] | TGI (HL-60(TB) leukemia) [µM] | GI50 (HOP-92 NSCLC) [µM] | TGI (HOP-92 NSCLC) [µM] | GI50 (K-562 leukemia) [µM] | TGI (K-562 leukemia) [µM] | GI50 (NCI-H23 lung) [µM] | TGI (NCI-H23 lung) [µM] | GI50 (OVCAR-8 ovarian) [µM] | TGI (OVCAR-8 ovarian) [µM] | GI50 (PC-3 prostate) [µM] | TGI (PC-3 prostate) [µM] | GI50 (UACC-257 melanoma) [µM] | TGI (UACC-257 melanoma) [µM] |
| --- | --- | --- | --- | --- | --- | --- | --- | --- | --- | --- | --- | --- | --- | --- | --- | --- | --- | --- |
| CC/C=C\C[C@@H](O)C/C=C1/C(=O)C=C[C@H]1C/C=C\CCCC(=O)OC | 3.75 | 10.7 | 1.8 | 4.66 | 1.96 | 5.48 | 4.54 | 15.2 | 0.987 | 10.1 | 2.4 | 6.63 | 3.26 | 10.4 | 3.2 | 10.8 | 3.38 | 8.36 |
| Cc1cc2c(cc1Cl)SC1=NN(C)S(=O)N1S2(=O)=O (stereo not drawn) | > 100 | > 100 | > 100 | > 100 | > 100 | > 100 | 25.5 | 87 | > 100 | > 100 | > 100 | > 100 | > 100 | > 100 | > 100 | > 100 | > 100 | > 100 |
| Cc1ccc(-c2nc3nc(-c4ccccc4)nc(N4CCCNCC4)c3o2)cc1 | 1.65 | 3.06 | 1.96 | 3.66 | 0.726 | 2.49 | 1.44 | 3.01 | 0.442 | 1.86 | 1.89 | 3.8 | 2.06 | 4.1 | 1.69 | 3.17 | 1.72 | 3.26 |
| CCCCCCCC(=O)OCC/C=C/C1OC1C1OC(=O)/C=C\C=C\c2nc(oc2C)/C=C(/C)CCC2OC2C1OC(=O)NC(C)=O (stereo not drawn) | 0.026 | 2.64 | 0.0581 | 0.193 | 0.114 | 2.07 | 0.0283 | 0.168 | 0.0304 | 1.51 | 0.023 | 0.108 | 0.028 | 0.826 | 0.0272 | 1.84 | 0.0301 | 0.125 |
| Cn1c2ccccc2c2ccc3c(c21)C(=O)c1ccccc1C3=O | – | > 100 | – | 82 | – | 10.8 | – | 54.2 | – | 32.2 | – | 33.5 | – | 61.6 | – | 33.2 | – | 67.5 |
| C[N+]1=C(/C=C/c2ccc(O)c3ncccc23)C(C)(C)c2ccccc21 | 2.96 | 13.4 | 2.3 | 6.11 | 2.73 | 8.04 | 2.22 | 7.67 | 2.32 | > 100 | 2.62 | 8.54 | 3.55 | > 100 | 2.79 | 22 | 3.81 | 13.5 |
| O=C(O)c1nn(-c2ccccc2-c2n[nH]c(=O)[nH]c2=O)c(=O)[nH]c1=O | – | > 100 | – | > 100 | – | > 100 | – | > 100 | – | > 100 | – | > 100 | – | > 100 | – | > 100 | – | > 100 |

Reference: PubChem BioAssay (NCI)
